Reference: patent US20240252508A1, “Novel glucose uptake inhibitors for use in the treatment of cancer” (NOVELYEAST BV, priority 2021, published 2024)
pKi: −log10 of the molar value. Where two headings read alike, the source gives them in different places.

Experiments:
[1] = test system: U266 multiple myeloma cell line; experiment: U266 proliferation (cell count); format: cell-based, human; conditions: 25 μM, 4 days, RPMI with 1 mM glucose
Protocol: a. Cell count of the U266 multiple myeloma cell line after 4 days of growth on RPMI medium with 1 mM glucose. Cells were treated with either DMSO or 25 μM of WBC-A, -15C, -4C or -11C. Glucose consumption (b.) or lactate secretion (c.) rates are shown for U266 cells incubated in RPMI medium supplemented with 1 mM glucose for 8 h.

[2] = test system: A549 lung adenocarcinoma cells; experiment: Steady-state glucose consumption and lactate production in A549 cells; format: cell-based, human; conditions: 25 μM, 1 mM glucose, 8 h
Protocol: (§1) The influence of WBC compounds on the steady-state glucose consumption rate was studied in the A549 adenocarcinoma and KMS-12-PE multiple myeloma cell lines. As such, different parameters needed to be optimized depending on whether cells were adherent or in suspension. As such, A549 cells were incubated at 125,000 cells/well in a 24-well plate in 300 μL RPMI medium for 8 h. For the KMS-12-PE cell line, 100,000 cells/well were incubated in 100 μL RPMI medium in a 96-well plate for 8 h. Medium was collected, spun down and HPLC-analyzed for measuring glucose and lactate levels. Metabolite levels were corrected for cell number, which always varied little over the span of 8 h. For every condition, at least 4 technical repeats were included.

[3] = test system: wild type cells; experiment: Zero-trans glucose uptake in wild type yeast cells; format: cell-based, S. cerevisiae; conditions: for pKi: Dixon plot analysis
Protocol: (§2) Zero-trans uptake of radioactively labeled [U-^14C]glucose, [U-^14C]fructose or [U-^14C]galactose by S. cerevisiae cells was determined in accordance with previous studies^44,66. Cells were grown on different carbon sources depending on the experiment. For measuring glucose uptake activity in the tps1Δ and tps1Δ hxtA strains (FIG. 1b,c), cells were grown on YP medium containing 3% glycerol (measurement of 10s). Typically, for compound characterization and kinetic studies in wild type and tps1Δ strains, cells were (pre)grown on Complete Synthetic medium supplemented with 2% galactose (measurement of 10s). In the experiments on the influence of hexokinase activity on the sugar uptake rate, the measurement duration was shortened to 5s and cells were always grown on YP medium containing 3% glycerol and 2% ethanol. After harvesting, cells were washed twice with ice-cold 25 mM MES-buffer pH 6, and resuspended in their respective medium without sugar to a final concentration of 45 mg (wet weight)/mL. The amount of added tracer was estimated to give a response close to at least 1000 counts per min in order to adequately counter background noise. Cells were first preincubated for 10 min at 30° C. with the compound to acclimate the cells to the temperature and to allow adequate interaction with the compound prior to uptake. Next, hexose sugar was mixed with the cell suspension, which was then incubated for 5 or 10 s, depending on the experiment, after which the cells were rapidly filtered over a glass microfiber filter (Whatman GF/C) and washed three times with ice-cold dH2O. The loaded filter was transferred to a scintillation vial containing 3 mL liquid scintillation cocktail (Ultima-Flo M, Perkin Elmer) and counted using the Hidex 300 SL. Three blank measurements per strain were typically included to account for background signal, for which the cells were first quenched before adding the radioactive label.

[4] = test system: tps1Δ cells; experiment: Zero-trans glucose uptake in tps1Δ yeast cells; format: cell-based, S. cerevisiae; conditions: for pKi: Dixon plot analysis
Protocol: as §2

[5] = test system: KMS-12-PE multiple myeloma cells; experiment: Steady-state glucose consumption and lactate production in KMS-12-PE cells; format: cell-based, human; conditions: 25 μM, 1 mM glucose, 8 h
Protocol: as §1

[6] = test system: wild type yeast cells; experiment: General toxicity: growth of wild type yeast cells; format: cell-based, S. cerevisiae; conditions: 100 μM
Protocol: Maximal growth rates were determined after 2 days of growth in Complete Synthetic liquid medium.
Growth curves were made by measuring OD595 in a 96-well plate using the Multiskan™ FC Microplate Photometer (Thermo Fisher Scientific). Typically, for tps1Δ rescue experiments (FIG. 2b-e; FIG. 4a), cells were (pre)grown in Complete Synthetic medium containing 2% galactose.
Compounds were always added 10 min prior to glucose addition to ensure maximal interaction between the cells and compounds. Cells originating from the preculture were harvested, washed in medium without sugar, after which they were resuspended to an OD of 0.1 in 200 μL of the appropriate medium. At least three technical replicates were included per condition. OD595 was measured at 30° C. every 30 min with a 10-min shaking interval.

[7] = test system: A549 lung adenocarcinoma cells; experiment: 2-deoxyglucose uptake in A549 cells; format: cell-based, human
Protocol: Zero-trans glucose uptake in A549 cells was approximated by measuring the uptake of [1,2-^3H]2-deoxyglucose. For this purpose, A549 cells were pregrown in RPMI medium containing 10 mM glucose in a 24-well plate to a cell density of around 100,000 cells/well. Prior to adding radioactive label, cells were gently washed twice in Krebs-Ringer-HEPES buffer (50 mM HEPES pH 7.4, 137 mM NaCl, 4.7 mM KCl, […], 1.3 mM MgSO4 and 0.1% w/v BSA) at 30° C. to remove any residual sugar. RPMI medium without sugar containing the compound intended for treatment, was added to the cells for 15 min at 37° C. to allow adequate interaction of the cells with the compound.
The uptake measurement was initiated by adding an equal volume of medium containing radiolabeled 2DG. After 3-4 min, medium was aspirated and cells were gently washed three times with ice-cold Krebs-Ringer-HEPES buffer. Cells were lysed by adding 200 μL of ice-cold 0.1 M NaOH solution and incubating the plate for 10 min at 37° C. Cell lysates were transferred to scintillation vials for subsequent scintillation counting. For blank measurements, cells were incubated with 50 μM Cytochalasin B prior to the uptake measurement.

[8] = test system: HXK2 hxk1Δ glk1Δ, hxk2Δ hxk1Δ glk1Δ and hxk2Δ hxk1Δ GLK1 cells; experiment: Sugar uptake in yeast strains with and without hexokinase activity; format: cell-based, S. cerevisiae; conditions: for inhibition at 50 µM: Saccharomyces cerevisiae
Protocol: as §2

For `Cc1nc(Sc2nnc3n2CCCCC3)c2c(-c3cccs3)csc2n1` [WBC-A], the “Proliferation of U266 cell line” value [1] was “inhibit proliferation”, the “Glucose consumption and lactate production in A549 cells” value [2] was “did not cause inhibition” and the pKi [3] was 5.04. For the same compound, the pKi ([3]; printed K′, read-out: K′i, glucose uptake, wild type cells) was 4.44, the “Type of inhibition of glucose uptake, wild type cells” value ([3]; Lineweaver-Burk plot analysis) was “mixed type” and the pKi [4] was 5.08. For the same compound, the pKi ([4]; printed K′, read-out: K′i, glucose uptake, tps1Δ cells) was 4.45, the “Type of inhibition of glucose uptake, tps1Δ cells” value ([4]; Lineweaver-Burk plot analysis) was “mixed type” and the “Glucose consumption and lactate production in KMS-12-PE cells” value [5] was “did not cause inhibition”. The “Growth of wild type yeast cells on glucose (2%) and on 3% glycerol+2% ethanol” value [6] was “did not cause any growth inhibition at all”, the pKi ([7]; Dixon plot analysis, read-out: Ki (=K′i), 2-deoxyglucose uptake in A549 cells) was 4.28 and the “Type of inhibition of 2-deoxyglucose uptake in A549 cells” value ([7]; Lineweaver-Burk plot analysis) was “noncompetitive”. The “Fructose uptake at tracer concentration, hxk2Δ hxk1Δ GLK1 cells” value ([8]; 50 μM WBC-A) was “little inhibition of fructose uptake”, the “Glucose uptake at tracer concentration, hxk2Δ hxk1Δ GLK1 cells” value ([8]; 50 μM WBC-A) was “strong inhibition of glucose uptake” and the “Inhibition of glucose uptake rate, hxk1Δ hxk2Δ glk1Δ strain” value ([8]; 1 mM glucose) was “little further inhibition”. For the same compound, the “Inhibition of glucose uptake rate, strain expressing active Hxk2” value ([8]; 1 mM glucose, HXK2 hxk1Δ glk1Δ) was “strong reduction in glucose uptake rate”, the inhibition at 50 µM ([8]; read-out: Inhibition of fructose transport, strain expressing only GLK1) was ~30% and the inhibition at 50 µM ([8]; read-out: Inhibition of fructose transport, strain only expressing HXK2) was > 75%.
